“Also recorded” adds a separate entry of the source. No end group written: not given here.
Legend:
[1] = system: c-fos protein expression in brain regions; test: i.c.v. secretin, immunocytochemical detection of Fos in rat brain; format: in vivo, Sprague-Dawley rats; conditions: i.c.v. lateral ventricle, secretin vs PBS, perfused 3 hours after injection, region named in the value
From the text: The inventors obtained data in eight adult male Sprague-Dawley rats weighing 250-450 g. The rats were obtained from Hilltop Lab Animals, Inc. (Scottdale, Pa.). Under ketamine-xylazine anesthesia, using sterile techniques, a stainless steel guide cannula was stereotaxically inserted into the lateral ventricle of each rat. Each cannula was affixed in place with dental cement secured to the skull. To prevent clogging, a removable 27 gauge wire was inserted into the guide cannula. The placement of the cannula with reference to bregma was 1.4-mm lateral, 0.5-mm caudal, and a depth of 2.5 mm from the surface of the skull. The rats were allowed to recover for 4-5 days before the injections. During this time, both experimental and control rats were administered 0.01 ml/kg buprinorphine hydrochloride every 6 h to reduce pain. Injections were made in the lateral ventricle 5 mm from the surface of the skull, via a premeasured cannula attached by polyethylene tubing (PE20) to a 25 ILL Hamilton syringe containing either phosphate buffered saline (PBS) at pH 7.4 (n=4) or 10 ILg (n=1, pilot study) or 30 ILg (n=3) of secretin (Sigma, St. Louis, Mo.) dissolved in 5-10 ILL PBS. Secretin injections were performed between 11:00 A.M. and 1:00 P.M.
Three hours after the i.c.v. injection, rats were administered sodium pentobarbital and perfused transcardially with heparinized, physiological saline followed by a 4% solution of paraformaldehyde in sodium phosphate buffer, pH 7.4. Whole brains were removed and blocked. Identical procedures were followed in control (n=4) and experimental animals (n=4). Tissue blocks were postfixed for 2-3 h in individual glass vials containing 4% paraformaldehyde in 0.1 M phosphate buffer (PBS, pH 7.4) and cryoprotected overnight at 4° C. in a solution of 10% sucrose in 0.1 M PBS. Frozen sections were cut on a sliding microtome at 30 JLm in the transverse plane and every fourth section was processed immunocytochemically for c-fos protein. Tissues from control and experimental animals were processed simultaneously in the same solutions in order to control for potential variability in immunocytochemistry. All incubations were carried out in separate test wells on a Thomas rotator table. Tissues were collected in 0.1 M PBS (pH 7.4) in spot test wells and washed in Tris-buffered saline (TBS) between each step. Nonspecific binding sites were blocked by preincubating for 30 min in bovine serum albumin (BSA), diluted 1:30 in TBS. Thereafter, sections were incubated overnight in primary whole rabbit antiserum raised against Fos protein diluted 1:10,000 (Oncogene, Cambridge, Mass.). The antisera were diluted in TBS containing 0.1% BSA, to which 0.25% Triton X-100 was added to facilitate antibody penetration. […]

[2] = system: c-fos protein expression in brain regions; test: as above; format: in vivo, Sprague-Dawley rats; conditions: secretin infusion into the fourth ventricle (Example 4)
[3] = system: IL10-/- colitis, colon inflammation; test: IL-10-/- mouse colitis (genetic IBD), hematoxylin/eosin gut histology; format: in vivo, C57B6 IL-10-/- mice; conditions: I.P. infusion by Alzet pump, vs saline
From the text: An acquired IBD model was created by inducing Colitis in male Sprague-Dawley rats (n=10) with trinitrobenzene sulfonic acid (TNBS) enema. A genetic IBD model was also created using IL-10 mutant mice. IBD criteria was confirmed in both groups by analyzing numbers of lymphocytes and epithelial destruction, and concomitant cerebral metabolic activity patterns comparing regional induction of c-fos gene expression. Control rats (n=11) and control mice (n=5) were also maintained.
Both the acquired IBD (rat) and genetic IBD (mouse) groups were treated with a combined peptide therapy consisting of co-administration of secretin and oxytocin. The acquired IBD subjects were administered a combination of secretin and oxytocin (40 μg/100 μl i.v.×7-20 days two weeks after disease induction). The genetic IBD subjects were administered a combination of secretin and oxytocin (40 μg/100 μl i.v.×7-20 days at age 18 weeks).
Data were obtained in 21 adult male Sprague-Dawley rats weighing 250-450 g and in 14 C57B6 IL-10−/− mice. Rats were obtained from Hilltop Lab Animals, Inc. (Scottdale, Pa.) and housed at the New York State Psychiatric Institute Housing Facility. Mice were obtained from Jackson Laboratory (Bar Harbor, Me.) and housed at the Eye Institute Annex of Columbia University.
Sprague-Dawley rats (n=10) were anesthetized with ketamine and xylazine and administered a solution of trinitrobenzene sulfonic acid (TNBS). 0.5 ml of TNBS solution (100 μl TNBS 5% solution; 150 μl PBS; 250 μl 100% ethanol) […] was administered intrarectally (Dohi T, et al., '00). Control rats (n=11) were injected with phosphate buffered saline (PBS) solution alone. On days 0, 3 and 7, the TNBS enema was administered via a glass microsyringe equipped with a gastric intubation needle. The animals were treated at the following time intervals: […] after the TNBS treatment in the Sprague-Dawley rats and at 18 weeks of age in the IL-10−/− mice.
Animals were anesthetized with xylazine (7-10 mg/kg I.P.) and ketamine (60 mg/kg I.P.) prior to implantation of an Alzet pump (model #2002). […]

secretin (HSDGTFTSELSRLRDSARLQRLLQGLV; not fully specified; ends and bridges not checked; UniProt P63298 33-59, looked up) [twenty-seven amino acid peptide and an enterogastrone; commercially available as SecreFlo]
Fos immunoreactivity (c-fos expression) attenuated in brain regions [1]: attenuated Fos labeling; also recorded: attenuated c-fos expression of the parietal cortex
Fos immunoreactivity (c-fos expression) induced in brain regions [1]: c-fos induction in ependymal and subependymal nuclei lining the third ventricle; also recorded: most heavily concentrated along the medial bank of the prefrontal cortex, the orbitofrontal cortex, the anterior olfactory nucleus, and the piriform cortex; also recorded: Fos immunoreactivity in behavioral, endocrine, and autonomic areas; also recorded: activated the NTS and its projection fields in the reticular formation, diffuse projection systems and the mesolimbic network; also recorded: area postrema was also activated; also recorded: induced c-fos expression in the locus ceruleus (LC); also recorded: induced c-fos expression of ependymal (arrows) and subependymal cells lining the third ventricle (III); also recorded: induced c-fos expression of the piriform cortex
Fos immunoreactivity (c-fos expression) attenuated in brain regions ([1]; listed as Secretin): attenuated Fos immunoreactivity in the dorsal periaqueductal gray, the intralamanar thalamus, the medial parvicellular hypothalamus, which synthesizes corticotrophin releasing hormone, the motor cortex, and the somatosensory and association areas of the parietal cortex
Fos immunoreactivity (c-fos expression) induced in brain regions ([1]; listed as Secretin): altered numbers of Fos immunoreactive nuclei, mainly in visceral and limbic areas of the brain; also recorded: induced c-fos protein expression in the dorsal vagal complex, including the general afferent division of NTS and the dorsal motor nucleus; also recorded: Fos IR was concentrated throughout the area postrema and its subpostremal region of transition with the NTS and the commissural, medial parvicellular and periventricular subnuclei; also recorded: activated c-fos expression in cells in the intermediate reticular region of the lateral tegmental field; also recorded: induced c-fos expression in the locus ceruleus (FIG. 3), ventral periaqueductal gray, and the paraventricular thalamic nucleus; also recorded: the predominant labeling mapped to the paraventricular hypothalamic nucleus, mainly its periventricular region and magnocellular subdivision; also recorded: induced c-fos in the medial and central amygdala and the lateral septal complex
brain regions activated [2]: activated comparable brain regions; viscerothalamic and HPA stress axes, amygdala, and ependyma
colon inflammation / inflammatory infiltrates, hematoxylin and eosin histology [3]: partial resolution of colon inflammation
colon inflammation / inflammatory infiltrates, hematoxylin and eosin histology ([3]; listed as S): partial resolution of inflammation
colon inflammation / inflammatory infiltrates, hematoxylin and eosin histology ([3]; listed as Secretin): dramatic increase in inflammatory infiltrate

From patent publication US7884076B2, “Multipeptide regimen for the treatment of autistic spectrum, behavioral, emotional and visceral inflammation/autoimmune disorders” (The Trustees of Columbia University In the City of New York, priority 2003, dated 2011)
